Data on one molecule can be found in patent US11879021B2, “Cyclic peptides and uses thereof” (UNIVERSITÉ DE MONTRÉAL, priority 2016, dated 2024).

Test [1] concerns mice exposed to intense blue light. The test is classed as in vivo. The conditions noted are these: 289 nmol/kg daily s.c. for 7 days. An excerpt:
The acute model of light-induced retinal degeneration uses short exposure to blue light to induce photoreceptor cell death leading to loss of vision (Grimm and Remé, Methods Mol Biol. 2013; 935: 87-97). Mice were exposed mice to intense blue light (wavelength=425 nm; exposure intensity=6000 lux) for five (5) successive days. The treatment was started one day after start of blue-light exposure (D1), for seven (7) successive days of daily subcutaneous (s.c) administration at 289 nmol/kg of test item solutions (MPE-001 and MPE-298). On Day 7, mice were dark adapted for electroretinography (ERG) analysis. […]
ERGs were recorded from wildtype and age matched knockout mice on Espion® ERG Diagnosys machine and a ColorDome® Ganzfeld stimulator (Diagnosys LLC, Lowell, MA). […]
Flash ERG were measured using corneal DTL Plus electrodes (Diagnosys® LLC). […] Scotopic responses were simultaneously recorded from both eyes of the dark-adapted animals at the following increasing light intensities: 0.5, 1.0, 3.0 and 10.0 cd-s/m^2. […] The amplitude and latency of major ERG components were measured with the Espion® software (Diagnosys® LLC). […] The ERG a-wave amplitudes were measured from the baseline to the primary negative peak and the b-wave was measured from the trough of the a-wave to the maximum of the […] positive peak. […]

The subject of test [2] is R-FSL-1 (TLR2 agonist)-induced TNF-α and CCL-2 release in RAW macrophages. In words: R-FSL-1-induced TNF-α and CCL-2 release in RAW macrophages. Type of test: cell-based, murine. The conditions noted are these: 10^−7 M. The protocol: The murine RAW1 macrophage cell line was obtained from American Type Cell Collection (ATCC #TIB-71). RAW cells were seeded at 150,000 cells per well in a 48-well plate (Costar® #3548) and weaned overnight in medium (DMEM supplemented 1% penicillin/streptomycin) at 37° C. with 5% CO2. The next day, the medium was changed to DMEM-1% penicillin/streptomycin supplemented with 0.2% BSA. The cells were first pretreated with 300 μL of azapeptides DBG178 (MPE-133, reference standard), 25 (MPE-210), 26 (MPE-266), 28 (MPE-268), 32 (MPE-267), 33 (MPE-298), 38 (MPE-308), 35 (MPE-300), 39 (MPE-310) and azaLys6-GHRP-6 (as negative control) at 10^-7M for 30 min. Then, […] of the TLR2 agonist, R-FSL-1 (300 ng/ml final concentration, R-FSL-1, Invivogen® #L7022) was added for 4 h period of incubation at 37° C. with 5% CO2. At the end of the incubation period, media were collected and stored at −80° C. for TNF-α and CCL-2 assays using ELISA kits (EbioScience® #88-7391 and #88-7324). Results were analyzed by analysis of variance (ANOVA) with post hoc comparisons using Dunnett's test with a statistical software package (Graph Pad Prism® version 7.0). P<0.05 was considered statistically significant.

Another test deals with apoE−/− mice. Nature of the test: Murine atherosclerosis model (apoE−/− mice on atherogenic diet), aortic lesions. The conditions noted are these: 300 nmol/kg daily s.c. for 8 weeks. The test is classed as in vivo. The protocol:
Experiments were performed in male apoE−/− mice fed an atherogenic diet (D12108, cholate-free AIN-76A semi-purified diet, Research Diets Inc., New Brunswick, NJ) from 4 weeks of age. MPE-298 (300 nmol/kg), MPE-267 (300 nmol/kg) or vehicle (0.9% NaCl), were administered by daily by subcutaneous (s.c.) injections for 8 weeks, from 12 weeks of age, as shown schematically in FIG. 8A.

For `C=CCN1CC#CCN(NC(=O)[C@H](C)N)C(=O)N[C@H](Cc2c[nH]c3ccccc23)C(=O)N[C@@H](C)C(=O)N[C@@H](Cc2c[nH]c3ccccc23)C(=O)N[C@H](Cc2ccccc2)C(=O)N[C@H](C(N)=O)CCCC1` [MPE-298], the “subretinal inflammation (immune cell infiltration, notably IL-1β-expressing immune cells, in the retina)” value in test [1] (F4/80-positive cells in RPE flatmounts) is “reduce”. Besides, the “outer nuclear layer (ONL) thickness” value in test [1] (mice exposed to blue light 6000 lux) is given as “preserved”. In test [2], the “effect on R-FSL-1-induced CCL-2 release” value is on record as “significant inhibitory effect” and the “effect on R-FSL-1-induced TNF-α release” value was “significant inhibitory effect”. The “reduction of aortic lesions relative to 0.9% NaCl (vehicle)” value with apoE−/− mice is reported as 42%.
